In patent US20260027239A1, “cRGD -CONJUGATED IMAGING AGENT” (Curadel Surgical Innovations, Inc., priority 2022, published 2026):

How the values were obtained:
[1] = Stability of cRGD in serum; assay type: in vitro ADME
[2] = Stability in warm buffered fetal bovine serum (normalized absorbance and absorbance spectra over time); assay type: in vitro ADME; conditions: 37° C. buffered FBS
Method: The normalized absorbance of ZW800-1 and ZW700-1c in 37° C. buffered FBS, pH 7.4 over time from 0 to 60 hours are shown in FIGS. 2-4.

stability in serum [1] | stability, changes in absorption spectra during metabolism in warm serum ([2]; pH 7.4, 0 to 48 hours, compared to ZW800-1 (FIGS. 5-6)) | stability, normalized absorbance over time ([2]; pH 7.4, 0 to 60 hours, compared to ZW800-1 (FIGS. 2-4)) | SMILES
stable in serum for days |  |  | N=C(N)NCC[C@@H]1NC(=O)[C@H](CCCCN)NC(=O)[C@@H](Cc2ccc(O)cc2)NC(=O)[C@H](C(=O)O)NC(=O)CNC1=O [cRGD]
 | high stability | extreme stability | CC1(C)C(/C=C/C(=C/C=C2/N(CCC[N+](C)(C)C)c3ccc(S(=O)(=O)[O-])cc3C2(C)C)c2ccc(CCC(=O)[O-])cc2)=[N+](CCC[N+](C)(C)C)c2ccc(S(=O)(=O)[O-])cc21 [ZW700-1c]
